# Entries after “also recorded” stand apart in the source; their conditions may differ. In the oligonucleotide strings, read from the 5' end, every base follows the letter of its sugar. An asterisk marks phosphorothioate; unmarked linkages are phosphodiester. Other units and linkages are bracketed, terminal groups are in braces. A string of capitals states the bases alone. d = 2'-deoxy (DNA)
# How the values were obtained:
# [1] = system: HSP90β mRNA; test: HSP90β mRNA RT-PCR in spleen and frontal lobe of stressed mice; assay type: in vivo, mouse; conditions: co-administration with mEN101
# Experimental: Animals: The stress paradigm consisted of placing the test animals on well-soiled cat litter for 10 minutes (in use by the cat for 2 days, sifted for stools). Tissues were removed 4 days following exposure.
# (§1) Real-time PCR (RT-PCR): RAW264.7 cells and spleen were used for RT-PCR. 1×10^6 RAW264.7 cells were grown in 2 ml medium in 6 wells plates until 80% confluence was obtained. Total RNA was extracted using the RNeasy kit (Qiagen, CA, USA). Spleen and brain tissues' RNA was extracted using the RNeasy Tissue Mini Kit (Qiagen, Germany). In all cases, total RNA was reverse-transcribed (200 ng) using Impromp-II reverse transcriptase (Promega, WI, USA) according to manufacturer's instructions. RT-PCR was performed using Power SYBR®Green PCR Master Mix (Applied Biosystems, UK) in a 7900 HT Sequence Detection System (Applied Biosystems, CA). Quantification was assessed at the logarithmic phase of the PCR reaction. The PCR annealing temperature was 60° C. for all primer pairs.
# [2] = system: FVB/N mice; test: Predator (cat) odor stress paradigm, elevated plus maze (EPM) and acoustic startle response (ASR) one week post-exposure; assay type: in vivo, mouse
# Experimental: Animals: FVB/N or adult TLR9 −/− mice and strain-matched wild type C57/B6J mice were housed four per cage, with constant temperature (21±1° C.), a 12 hour light/dark cycle, free access to food and water and habituation to the housing conditions by daily handling. Experiments were performed 1 week after arrival in the animal facility.
# Behavioral paradigms: Mice were placed for 10 minutes on well-soiled cat litter (in use by the cat for 2 days, sifted for stools). One week after exposure, animals were tested according to Cohen et al. (2005) Biol Psychiatry 58, 640 in the elevated plus maze (EPM) and the acoustic startle response (ASR) paradigms. The EPM is a plus-shaped platform with two opposing open arms and two opposing closed arms (surrounded by 14-cm high opaque walls on three sides). Mice were placed on the central platform and were allowed to explore the maze for 5 min. […]
# Startle response was measured using two ventilated startle chambers (SR-LAB System, San Diego Instruments, San Diego, Calif.). Each Plexiglas cylinder rests on a platform inside a sound-attenuated, ventilated chamber. Startle sessions started with a 5-minute acclimatization period to a background of 68 dB white noise, followed by 30 acoustic startle stimuli (110 dB white noise of 40 ms duration with 30 s or 45 s inter-trial interval). Startle amplitude was averaged over all 30 trials, and percent habituation was calculated as the percent difference between the response to the first block of stimuli and to the last one.
# (§2) Animals were randomly divided into 5 groups. The following daily treatments initiated immediately before stressor exposure and for a total of four consecutive days: saline, 50 μg/kg ODN1826, 50 μg/kg mEN101, 50 μg/kg μg mEN101 and 500 μg/kg μg ODN2088. Oligonucleotides were delivered in 300 μl 0.9% NaCl solution (Teva, Israel). A control group was exposed to fresh, unused litter. Animals were sacrificed and brains dissected on day 1 2 h after the stressor, on day 4 2 h after the last injection, or on day 7 2 h after the behavioral tests, as noted.
# To challenge the hypothesis that TLR9 activation modulates psychological stress reactions, mice were exposed to the predator odor stress paradigm (Cohen, H., Zohar, J., Matar, M. A., Kaplan, Z. & Geva, A. B. (2005) Biol Psychiatry 58, 640-50) and treated them with TLR9 activating or blocking oligonucleotides and with a known stress-suppressing oligonucleotide, mEN101. One week post-exposure, treated mice were tested for avoidance behavior and hyper-arousal in the elevated plus maze (EPM) and acoustic startle response (ASR) tests, respectively (FIG. 1B). […] They also presented greater startle amplitude (F5,103=10.75, p<0.0001; p<0.0001) and decreased startle habituation ([…]; p<0.0001) than control mice (FIG. 1C). The traumatic experience conferred varied impacts in the exposed mice, ranging from drastically maladaptive behavior to generally unmodified response patterns.
# [3] = system: RAW264.7 cells; test: Nitric oxide (NO) production, Griess reaction; assay type: cell-based, mouse; conditions: with 1 μM mEN101
# [4] = system: hippocampus; test: RT-PCR of anxiety-related hippocampal transcripts, 4 days following stress; assay type: in vivo, mouse
# Experimental: as §2
# Real-time PCR (RT-PCR): Brains were dissected and tissues stored frozen at −70° C. until use. Hippocampal RNA was extracted using the RNeasy Tissue Mini Kit (Qiagen, Germany). Total RNA was reverse-transcribed (200 ng) using Impromp-II reverse transcriptase (Promega, Madison, Wis.) as instructed. RT-PCR was performed using Power SYBR®Green PCR Master Mix (Applied Biosystems, UK) in a 7900 HT Sequence Detection System (Applied Biosystems, Foster City, Calif.). Quantification was assessed at the logarithmic phase of the PCR reaction. The PCR annealing temperature was 60° C. for all primer pairs. GAPDH was used as a house-keeping gene.
# The transcription factor early growth response gene 1 (egr-1) is a central mediator of inflammation and is broadly and constitutively expressed in the central nervous system (CNS). […]
# [5] = system: RAW264.7 cells; test: Nitric oxide (NO) production, Griess reaction; assay type: cell-based, mouse; conditions: added with 10 μM mEN101
# Experimental: The mouse macrophage cell line RAW 264.7 (ATCC, Bethesda, Md.) was cultured in Dulbecco's modified Eagle's medium (DMEM) (Biological Industries) supplemented with 10% heat-inactivated fetal bovine serum (Biological Industries, Israel), 100 μg/ml streptomycin, 100 U/ml penicillin (Sigma) and 2 mM 1-glutamine (Biological Industries) at 37° C. in a humidified atmosphere with 5% CO2.
# Determination of nitric oxide (NO) production: Nitrite concentration in the medium of cultured cells was measured as an indicator of NO production according to the Griess reaction. 1×10^5 mouse RAW264.7 cells were grown in 0.5 ml medium in 48-wells plate until 80% confluence was obtained. […] (1% sulfanilamide, 0.1% naphthylethylenediamine dihydrochloride, 5% H3PO4). Absorbance was read at 540 nm after 10 min using SPECTRAFluor Plus spectrophotometer (TECAN, UK).
# To further characterize the TLR9 activating features of mEN101, mEN101 was applied to RAW264.7 cells (n=4 repeats) for 24 hours and the subsequent production of inflammatory markers was quantified. […] Addition of chloroquine (CQ), a weak base that perturbs endosomal pH and thus disturbs endosomal maturation, as well as the specific TLR9 inhibiting oligonucleotides ODN2088 and ODN TTAGGG (17), all blocked the 10 μM mEN101-driven increases in NO (p<0.015) (FIG. 2A). Thus, both gain and loss of function tests validated the nature of mEN101 as an endosomally active TLR9 activator, albeit a weak one.
# [6] = system: RAW264.7 cells; test: HSP90β mRNA RT-PCR in RAW264.7 cells; assay type: cell-based, mouse; conditions: with mEN101, 24 hours
# Experimental: Cell cultures: The mouse macrophage cell line RAW 264.7 (ATCC, MD) was cultured in Dulbecco's modified Eagle's medium (DMEM) (Biological Industries, Israel) supplemented with 10% heat-inactivated fetal bovine serum (Biological Industries, Israel), 100 μg/ml streptomycin (Sigma), 100 U/ml penicillin (Sigma) and 2 mM 1-glutamine (Biological Industries, Israel) at 37° C. in a humidified atmosphere with 5% CO2.
# as §1
# [7] = 500 μg/kg co-administered with 50 μg/kg mEN101
substance,measurement,setting,value
5′-TCCTGGCGGGGAAGT-3′ (dT*dC*dC*dT*dG*dG*dC*dG*dG*dG*dG*dA*dA*dG*dT) [ODN2088],effect on HSP90β mRNA up-regulation,[1],completely abolished; also recorded: blocked
same,EPM score of co-treated mice vs mEN101-treated mice,[2]; [7],larger EPM scores
same,effect on mEN101 anxiolytic effects,[2]; [7],abolished much of the mEN101 anxiolytic effects; also recorded: abolished the mEN101-induced amelioration of anxiety-correlated behaviors
same,habituation to acoustic startle of co-treated mice vs mEN101-treated mice,[2]; [7],smaller habituation to acoustic startle
same,startle response of co-treated mice,[2]; [7],remained unchanged
same,anxiety index (AI): effect on mEN101 ameliorative effect,"[2]; co-administered with mEN101, compared to mEN101 treated mice",abolished mEN101 ameliorative effect
same,effect on mEN101 effects on NO production (FIG. 2A legend),[3],abolished
same,effect on mEN101-induced modulation of hippocampal genes,[4]; co-administration with mEN101,abolished the mEN101-induced modulation of these genes
same,"anxiety-related transcripts GABRA2, CHRNA7, ADCYAP1R1, PKCB, CHRBP and CAMK2A (FIGS. 5A-F legend)","[4]; co-administration with mEN101, day 4",reduced to control levels
same,effect on 10 μM mEN101-driven increases in NO,[5],blocked
same,effect on mEN101 up-regulation of HSP90β mRNA,[6],abolished

# Reference: US20110136897A1, “TOLL-LIKE RECEPTOR 9 AGONISTS FOR THE TREATMENT OF ANXIETY-RELATED DISORDERS AND INFLAMMATORY DISORDERS” (YISSUM RESEARCH DEVELOPMENT COMPANY OF THE HEBREW …, priority 2008, published 2011)
